Assay [1] has as its target T1, 3-hydroxy-3-methylglutaryl-coenzyme A reductase (Rattus norvegicus) (UniProt P51639).
T1 sequence (whole entry): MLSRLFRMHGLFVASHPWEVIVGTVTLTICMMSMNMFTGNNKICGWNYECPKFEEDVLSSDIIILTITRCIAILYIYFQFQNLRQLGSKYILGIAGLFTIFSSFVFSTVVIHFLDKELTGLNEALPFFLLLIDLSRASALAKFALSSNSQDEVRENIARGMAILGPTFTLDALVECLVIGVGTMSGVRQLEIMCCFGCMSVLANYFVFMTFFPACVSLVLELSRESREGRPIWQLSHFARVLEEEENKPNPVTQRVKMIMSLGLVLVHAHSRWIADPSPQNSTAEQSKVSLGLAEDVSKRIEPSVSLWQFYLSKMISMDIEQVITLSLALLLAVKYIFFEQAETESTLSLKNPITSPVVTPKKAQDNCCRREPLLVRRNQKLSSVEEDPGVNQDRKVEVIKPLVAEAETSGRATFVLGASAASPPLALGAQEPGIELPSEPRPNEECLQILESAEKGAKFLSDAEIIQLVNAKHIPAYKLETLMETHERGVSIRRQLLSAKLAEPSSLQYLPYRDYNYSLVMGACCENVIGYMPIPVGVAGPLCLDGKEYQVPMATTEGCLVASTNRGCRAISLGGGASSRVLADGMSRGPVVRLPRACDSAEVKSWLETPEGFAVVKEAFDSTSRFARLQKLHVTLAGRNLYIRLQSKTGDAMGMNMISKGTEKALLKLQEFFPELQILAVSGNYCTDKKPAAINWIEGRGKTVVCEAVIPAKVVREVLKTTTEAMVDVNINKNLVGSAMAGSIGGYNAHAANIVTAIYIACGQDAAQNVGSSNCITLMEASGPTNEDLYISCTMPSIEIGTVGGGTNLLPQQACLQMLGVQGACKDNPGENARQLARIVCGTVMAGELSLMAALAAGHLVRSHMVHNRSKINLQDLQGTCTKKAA
The assay is described as follows: The compound was evaluated for Inhibition of rat hepatic microsomal HMG-CoA reductase at log concentration of ~-4/M.

Assay [2] deals with T2, 3-hydroxy-3-methylglutaryl-coenzyme A reductase (Rattus norvegicus, UniProt P51639).
T2 sequence (P51639 whole entry): T1 sequence (whole entry)
The assay is described as follows: The compound was evaluated for Inhibition of rat hepatic microsomal HMG-CoA reductase.

In assay [3] the target is T1, 3-hydroxy-3-methylglutaryl-coenzyme A reductase (Rattus norvegicus). The assay is described as follows: The compound was evaluated for Inhibition of rat hepatic microsomal HMG-CoA reductase at log concentration of ~-5/M.
For assay [4] the target is unchanged. The assay is described as follows: The compound was evaluated for Inhibition of rat hepatic microsomal HMG-CoA reductase at log concentration of ~-6/M.
Assay [5] has the same target. Briefly: The compound was evaluated for Inhibition of rat hepatic microsomal HMG-CoA reductase at log concentration of ~-7/M.
Assay [6] has the same target. The assay is described as follows: The compound was evaluated for Inhibition of rat hepatic microsomal HMG-CoA reductase at log concentration of ~-8/M.
The target is the same in assay [7]. The assay is described as follows: The compound was evaluated for Inhibition of rat hepatic microsomal HMG-CoA reductase at log concentration of ~-3/M.
For assay [8] the target is unchanged. Briefly: The compound was evaluated for Inhibition of rat hepatic microsomal HMG-CoA reductase at log concentration of ~-4/M.
The target is the same in assay [9]. Briefly: The compound was evaluated for Inhibition of rat hepatic microsomal HMG-CoA reductase at log concentration of ~-5/M.
Assay [10] has the same target. The assay is described as follows: The compound was evaluated for Inhibition of rat hepatic microsomal HMG-CoA reductase at log concentration of ~-6/M.
The target is the same in assay [11].
Description: The compound was evaluated for Inhibition of rat hepatic microsomal HMG-CoA reductase at log concentration of ~-10/M.
For assay [12] the target is unchanged. The source holds these as a separate data set.
Description: The compound was evaluated for Inhibition of rat hepatic microsomal HMG-CoA reductase at log concentration of ~-11/M
Assay [13] shares this target. This is another data set of the same source.
Description: The compound was evaluated for Inhibition of rat hepatic microsomal HMG-CoA reductase at log concentration of ~-9/M.
For assay [14] the target is unchanged. The assay is described as follows: The compound was evaluated for Inhibition of rat hepatic microsomal HMG-CoA reductase at log concentration of ~-3/M.
Assay [15] has the same target. The assay is described as follows: The compound was evaluated for Inhibition of rat hepatic microsomal HMG-CoA reductase at log concentration of ~-8/M.

These results are taken from ChEMBL document CHEMBL1126404, “A novel approach to the site specific delivery of potential HMG-CoA reductase inhibitors” (Bioorg Med Chem Lett, 1992).

Regarding `C[C@H](CC(O)CC(O)CC(=O)O)[C@H]1CC[C@H]2[C@@H]3[C@H](O)C[C@@H]4C[C@H](O)CC[C@]4(C)[C@H]3C[C@H](OC(=O)C(C)(C)C)[C@]12C` (some centres not stated), the Activity (nM min-1 mg-1) in assay [1] turned out to be 0; in [3], 30; in assay [4], 150; in assay [5], 270; in [6] it was 280. Moreover, in assay [2], the half-inhibitory concentration (IC50) (in general, the concentration that gives 50% inhibition) was 12.3 µM.
As to `CC(=O)O[C@@H]1CC[C@@]2(C)[C@@H](C1)C[C@@H](OC(C)=O)[C@@H]1[C@@H]2C[C@H](OC(C)=O)[C@]2(C)[C@@H]([C@H](C)CC(O)CC(O)CC(=O)O)CC[C@@H]12` (some centres not stated), the Activity (nM min-1 mg-1) in [7] came to 0; in [8] it was 80; in assay [9], 240; in assay [10], 280; in [6], 300. Besides, 39.2 µM corresponded to half-maximal inhibition in assay [2] (IC50).
For the compound `CC[C@@H](C)C(=O)O[C@H]1C[C@@H](C)C=C2C=C[C@H](C)[C@H](CC[C@@H](O)C[C@@H](O)CC(=O)O)[C@H]21`, the Activity (nM min-1 mg-1) in assay [4] is 0; in assay [11] it was 280; in assay [12], 280; in [13], 240.
Consider `COC(=O)CC(=O)CC(O)C[C@@H](C)[C@H]1CC[C@H]2[C@@H]3[C@H](OC(C)=O)C[C@@H]4C[C@H](OC(C)=O)CC[C@]4(C)[C@H]3C[C@H](OC(C)=O)[C@]12C` (some centres not stated), for which the Activity (nM min-1 mg-1) came to 250 in [14]; 290 in assay [1]; 290 in [3]; 300 in assay [4]; 290 in assay [5]; 280 in [15].
